Patent US6444696B1, “Pyrazole derivatives P38 MAP kinase inhibitors” (Syntex (U.S.A.) LLC, priority 1998, dated 2002)
Structures can show the parent of a compound that is named as a salt.

molecular target: T1, p38 MAP kinase (Homo sapiens, UniProt Q16539); assay: Inhibition of p-38 (MAP) kinase, in vitro assay (transfer of γ-33P from ATP to Myelin Basic Protein); type: biochemical; conditions: phosphorylated recombinant p38 MAP kinase, MBP substrate, γ-33P-ATP, 30° C.; read-out: IC50, μM (p-38 inhibitory activity)
T1 construct: made in house; host or cells: E. coli (co-expressed with SEK-1 and MEKK to obtain the phosphorylated form)
Procedure: The p-38 MAP kinase inhibitory activity of compounds of this invention in vitro was determined by measuring the transfer of the γ-phosphate from γ-^33P-ATP by p-38 kinase to Myelin Basic Protein (MBP), using the a minor modification of the method described in Ahn, N. G.; et al. J. Biol. Chem. Vol. 266(7), 4220-4227, (1991).
The phosphorylated form of the recombinant p38 MAP kinase was expressed with SEK-1 and MEKK in E. Coli and then purified by affinity chromatography using a Nickel column.
The phosphorylated p38 MAP kinase was diluted in kinase buffer (20 mM 3-(N-morpholino)propanesulfonic acid, pH 7.2, 25 mM β-glycerol phosphate, 5 mM ethylene glycol-bis(beta-aminoethyl ether)-N,N,N′,N′-tetraacetic acid, 1 mM sodium vanadate, 1 mM dithiothreitol, 40 mM magnesium chloride). Test compound dissolved in DMSO or only DMSO (control) was added and the samples were incubated for 10 min at 30° C. The kinase reaction was initiated by the addition of a substrate cocktail containing MBP and γ-^33P-ATP. After incubating for an additional 20 min at 30° C., the reaction was terminated by adding 0.75% phosphoric acid. The phosphorylated MBP was then separated from the residual γ-^33P-ATP using a phosphocellulose membrane (Millipore, Bedford, Mass.) and quantitated using a scintillation counter (Packard, Meriden, Conn.).
Compounds of the invention were active in this assay.

T1 sequence (Q16539 whole entry): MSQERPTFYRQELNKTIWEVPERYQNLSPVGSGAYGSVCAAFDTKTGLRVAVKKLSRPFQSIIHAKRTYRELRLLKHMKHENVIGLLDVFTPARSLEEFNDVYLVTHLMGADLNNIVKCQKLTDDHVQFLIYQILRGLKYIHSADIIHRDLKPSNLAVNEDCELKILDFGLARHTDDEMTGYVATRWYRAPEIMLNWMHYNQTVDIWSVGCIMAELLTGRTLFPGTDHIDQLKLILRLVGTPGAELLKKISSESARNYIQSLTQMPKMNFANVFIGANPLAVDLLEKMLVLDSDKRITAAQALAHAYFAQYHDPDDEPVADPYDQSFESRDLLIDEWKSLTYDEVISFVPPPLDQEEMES

Row | IC50 | SMILES
1 | 1.78 µM | Nc1c(C(=O)c2cccc(C#CCN3CCOCC3)c2)cnn1-c1ccc(F)cc1 [compound 3, 5-Amino-1-(4-fluorophenyl)-4-[3-{3-(morpholin-4-yl)prop-1-ynyl}benzoyl]pyrazole]
2 | 1.74 µM | Nc1c(C(=O)c2cccc(CCCN3CCOCC3)c2)cnn1-c1ccc(F)cc1 [compound 6, 5-Amino-1-(4-fluorophenyl)-4-[3-(3-morpholin-4-ylpropyl)benzoyl]pyrazole hydrochloride]
3 | 1.25 µM | Nc1c(C(=O)c2cccc(CCS(N)(=O)=O)c2)cnn1-c1ccc(F)cc1 [compound 50, 5-Amino4-[3-(2-aminosulfonylethyl)benzoyl]-1-(4-fluorophenyl)pyrazole]

Row | SMILES | IC50
4 | Nc1c(C(=O)c2cccc(OCCN3CCOCC3)c2)cnn1-c1ccc(F)cc1 [compound 14, 5-Amino-1-(4-fluorophenyl)-4-[3-{2-(morpholin-4-yl)ethoxy}benzoyl]pyrazole hydrochloride] | 1.27 µM
5 | Nc1c(C(=O)c2cccc(C#CCN3CCCCC3)c2)cnn1-c1ccc(F)cc1 [compound 9, 5-amino-1-(4-fluorophenyl)-4-[3-{3-(piperidin-1-yl)prop-1-ynyl}benzoyl]pyrazole.HCl] | 1.32 µM

system: not given; assay: not given; conditions: not given

Row | melting point | SMILES
6 | 130.8 to 135.1 °C | Nc1c(C(=O)c2cccc(OCCN3CCOCC3)c2)cnn1-c1ccccc1F [compound 97, 5-amino-1-(2-fluorophenyl)-4-[3-(2-morpholin-4-ylethoxy)benzoyl]pyrazole]
7 | 281.3 to 282.8 °C | Cc1ccc(-n2ncc(C(=O)c3cccc(-c4cccnc4)c3)c2N)cc1 (as salt: HCl) [compound 65, 5-amino-1-(4-methylphenyl)-4-[3-(pyridin-3-yl)benzoyl]pyrazole]
8 | 254.5 to 254.9 °C | CN1CCN(CCCc2cccc(C(=O)c3cnn(-c4ccc(F)cc4)c3N)c2)CC1 (as salt: HCl) [compound 30, 5-amino-1-(4-fluorophenyl)-4-{3-[3-(4-methylpiperazin-1-yl)propyl]benzoyl}pyrazole]
9 | 183.5 to 184 °C | Nc1c(C(=O)c2cccc(C#Cc3cccnc3)c2)cnn1-c1ccc(F)cc1F [compound 88, 5-amino-1-(2,4-difluorophenyl)-4-[3-(3-pyridylethynyl)benzoyl]pyrazole]
10 | 141.5 to 145.5 °C | Nc1c(C(=O)c2cccc(CN3CCC(O)CC3)c2)cnn1-c1ccc(F)cc1F [compound 133]
11 | 176.8 to 177.1 °C | Nc1c(C(=O)c2cccc(C#CC3(O)CCCC3)c2)cnn1-c1ccc(F)cc1F [compound 94, 5-amino-1-(2,4-difluorophenyl)-4-[3-{2-(1-hydroxycyclopentyl)ethynyl}benzoyl]pyrazole]
12 | 201.2 to 202.8 °C | CCNC(=O)Oc1cccc(C(=O)c2cnn(-c3ccc(F)cc3)c2N)c1
13 | 144.3 to 144.9 °C | Nc1c(C(=O)c2cccc(OC[C@@H]3COC(=O)O3)c2)cnn1-c1ccc(F)cc1 [compound 171, 5-amino-1-(4-fluorophenyl)-4-{3-[(1,3-dioxolan-2-on-4(R)-yl)methoxy]benzoyl}pyrazole]
14 | 59 to 64 °C | Nc1c(C(=O)c2cccc(C(O)CO)c2)cnn1-c1ccc(F)cc1F (centres unmarked) [compound 103, 5-amino-1-(2,4-difluorophenyl)-4-[3-(1,2-dihydroxyethyl)benzoyl]pyrazole]
15 | 174.5 to 178 °C | Nc1c(C(=O)c2cccc(OCCn3ncccc3=O)c2)cnn1-c1ccc(F)cc1 [compound 128]
16 | 144.2 to 145.1 °C | Nc1c(C(=O)c2cccc(OCCN3CCOCC3)c2)cnn1-c1c(Cl)cccc1Cl [compound 98, 5-amino-1-(2,6-dichlorophenyl)-4-[3-(2-morpholin-4-ylethoxy)benzoyl]pyrazole]
17 | 152.6 to 153.1 °C | CC(C)(O)C#Cc1cccc(C(=O)c2cnn(-c3ccc(F)cc3)c2N)c1 [compound 87, 5-amino-1-(4-fluorophenyl)-4-[3-(3-hydroxy-3-methyl-but-1-ynyl)benzoyl]pyrazole]
18 | 62 to 65 °C | COC(=O)OCC(COc1cccc(C(=O)c2cnn(-c3ccc(F)cc3)c2N)c1)OC(=O)OC (stereo in doubt) [compound 168, 5-amino-1-(4-fluorophenyl)-4-[3-{2(S),3-(dimethoxycarbonyloxy)propoxy}benzoyl]pyrazole]
19 | 120.3 to 121 °C | Nc1c(C(=O)c2cccc(CCC3(O)CCCC3)c2)cnn1-c1ccc(F)cc1F [compound 95, 5-amino-1-(2,4-difluorophenyl)-4-[3-{2-(1-hydroxycyclopentyl)ethyl}benzoyl]pyrazole]
20 | 215.9 to 216.2 °C | Nc1c(C(=O)c2cccc(OCC(=O)O)c2)cnn1-c1ccc(F)cc1 [compound 119]
21 | 78.3 to 80 °C | CC1(C)OCC(COc2cccc(C(=O)c3cnn(-c4ccc(F)cc4)c3N)c2)O1 (stereo in doubt) [compound 170, 5-amino-1-(4-fluorophenyl)-4-{3-[(2,2-dimethyl-1,3-dioxolan-4(S)-yl)methoxy]benzoyl}pyrazole]
22 | 153.4 to 153.7 °C | Nc1c(C(=O)c2cccc(CCc3cccnc3)c2)cnn1-c1ccc(F)cc1F [compound 91, 5-amino-1-(2,4-difluorophenyl)-4-[3-(3-pyridylethyl)benzoyl]pyrazole]
23 | 74.1 to 75.7 °C | CCC1(CC)OC[C@H](COc2cccc(C(=O)c3cnn(-c4ccc(F)cc4)c3N)c2)O1 [compound 173, 5-amino-1-(4-fluorophenyl)-4-{3-[(2,2-diethyl-1,3-dioxolan-4(S)-yl)methoxy]benzoyl}pyrazole]
24 | 83 to 85.5 °C | Cc1ccccc1-n1ncc(C(=O)c2cccc(C(O)CO)c2)c1N (centres unmarked) [compound 109, 5-amino-1-(2-methylphenyl)-4-[3-(1,2-dihydroxyethyl)benzoyl]pyrazole]
25 | 256.1 to 256.5 °C | COc1cccc(-n2ncc(C(=O)c3cccc(-c4cccnc4)c3)c2N)c1 (as salt: HCl) [compound 66, 5-amino-1-(3-methoxyphenyl)-4-[3-(pyridin-3-yl)benzoyl]pyrazole]
26 | 124.3 to 126.6 °C | Nc1c(C(=O)c2cccc(OCC(=O)N3CCOCC3)c2)cnn1-c1ccc(F)cc1 [compound 35, 5-amino-1-(4-fluorophenyl)-4-[3-(morpholin-4-ylcarbonylmethyloxy)benzoyl]pyrazole]
27 | 227.1 to 277.7 °C | Nc1c(C(=O)c2cccc(CCCN3CCCCC3)c2)cnn1-c1ccc(F)cc1 (as salt: HCl) [compound 32, 5-amino-1-(4-fluorophenyl)-4-[3-(3-piperidin-1-ylpropyl)benzoyl]pyrazole]
28 | 123.8 to 125.9 °C | Nc1c(C(=O)c2cccc(CCCN3CCS(=O)(=O)CC3)c2)cnn1-c1ccc(F)cc1F [compound 92, 5-amino-1-(2,4-difluorophenyl)-4-[3-{3-(S,S-dioxo-thiomorpholin-4-yl)propyl}benzoyl]pyrazole]
29 | 225.2 to 230.1 °C | CC(C)NC(=O)Oc1cccc(C(=O)c2cnn(-c3ccc(F)cc3)c2N)c1
30 | > 300 °C | Nc1c(C(=O)c2cccc(-c3cccnc3)c2)cnn1-c1ccc(S(N)(=O)=O)cc1 (as salt: HCl) [compound 68, 5-amino-1-(4-sulfamoylphenyl)-4-[3-(pyridin-3-yl)benzoyl]pyrazole]
31 | 116.6 to 118.6 °C | Nc1c(C(=O)c2cccc(CN3CCCCC3)c2)cnn1-c1ccc(F)cc1F [compound 86, 5-Amino-1-(2,4-difluorophenyl)-4-[3-(1-piperidinylmethyl)benzoyl]pyrazole]
32 | 127.3 to 128.5 °C | Nc1c(C(=O)c2cccc(CN3CCOCC3)c2)cnn1-c1ccc(F)cc1F [compound 131]
33 | 176.1 to 177.3 °C | Nc1c(C(=O)c2cccc(OCc3ccccn3)c2)cnn1-c1ccc(F)cc1 [compound 82, 5-amino-1-(4-fluorophenyl)-4-[3-(pyridin-2-ylmethoxy)benzoyl]pyrazole]
34 | 81.1 to 83 °C | CCC1(C)OC[C@H](COc2cccc(C(=O)c3cnn(-c4ccc(F)cc4)c3N)c2)O1 (stereo partly drawn) [compound 174, 5-amino-1-(4-fluorophenyl)-4-{3-[(2-methyl-2-ethyl-1,3-dioxolan-4(S)-yl)methoxy]benzoyl}pyrazole]

Row | SMILES | melting point
35 | CC(=O)OCC(COc1cccc(C(=O)c2cnn(-c3ccc(F)cc3)c2N)c1)OC(C)=O (stereo in doubt) [compound 165, 5-amino-1-(4-fluorophenyl)-4-[3-{2(S),3-(diacetoxy)propoxy}benzoyl]pyrazole] | 91.4 to 92.7 °C
